US20120065195A1, “COMPOUNDS FOR TREATING NEURODEGENERATIVE DISEASES” (priority 2010, published 2012)
pIC50: −log10 of the molar value.

Target: T1, BACE1 (Homo sapiens, UniProt P56817)
T1 construct: endogenous in cells; host or cells: HEK-293 (stably transfected with wild type APP695 only)
Test: Cellular BACE1 Inhibition Assay (in vitro cellular Amyloidβ 1-40 production assay, HTRF immunoassay)
Assay type: cell-based
Description: The BACE inhibition properties of the compounds of the invention may be determined by the following in vitro cellular Amyloidβ 1-40 production assay.
Inhibition of Amyloidβ1-40 production was determined by incubating cells with compound for 48 hours and quantifying the level of Amyloidβ 1-40 using an HTRF immunoassay.
Materials and Methods: HEK-293 cells stably transfected with a DNA construct containing the coding sequence for the wild type APP695 sequence were grown in DMEM supplemented with 10% fetal bovine serum, penicillin/streptomycin and 150 μg/mL G418. Cells were plated in 96-well plates at 35,000 cells/well and allowed to attach for 8-12 hours. Media was changed to DMEM supplemented with 10% fetal bovine serum, penicillin/streptomycin 15 minutes prior to compound addition. Diluted compounds were then added at a final concentration of 0.5% DMSO. After 48 hours, 4 μL of media from each well was added to a corresponding well of a 384 well plate (Perkin Elmer Cat#6008280) containing the HTRF reagents. HTRF reagents were obtained from the CisBio Amyloidβ 1-40 peptide assay kit (Cat#62B40PEC) and were prepared as follows anti-peptide β (1-40)-Cryptate and anti-peptide β (1-40)-XL655 were stored in 2 plate aliquots at −80° C. Diluent and Reconstitution buffer were stored at 4° C. Aliquots of the two antibodies were diluted 1:100 with Reconstitution buffer, and this mixture was diluted 1:2 with Diluent. 12 μL of the reagent mixture was added to the required wells of the 384 well assay plate. The assay plate was incubated at 4° C. for 17 hours and then analyzed for fluorescence at 665 and 620 nm.

T1 sequence (P56817 46-501): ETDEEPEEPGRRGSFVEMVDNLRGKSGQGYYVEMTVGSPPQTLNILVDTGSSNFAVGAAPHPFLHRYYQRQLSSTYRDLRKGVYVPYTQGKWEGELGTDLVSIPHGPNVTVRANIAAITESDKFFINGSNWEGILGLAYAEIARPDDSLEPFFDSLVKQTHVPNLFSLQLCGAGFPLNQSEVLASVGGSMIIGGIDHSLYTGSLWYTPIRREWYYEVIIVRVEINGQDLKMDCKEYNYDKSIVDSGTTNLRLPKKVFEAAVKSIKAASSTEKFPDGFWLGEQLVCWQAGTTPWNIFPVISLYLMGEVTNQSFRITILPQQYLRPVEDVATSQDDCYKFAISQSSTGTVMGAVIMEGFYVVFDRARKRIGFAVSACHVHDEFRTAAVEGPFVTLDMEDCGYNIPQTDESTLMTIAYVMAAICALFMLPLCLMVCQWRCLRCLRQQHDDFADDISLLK

pIC50	SMILES
8.89	CN1C(=O)[C@]2(C[C@@](C)(Cc3ccccc3)Cc3ccc(-c4cncc(Cl)c4)cc32)N=C1N [Example 147, (1′R,3′S)-2-amino-3′-benzyl-7′-(5-chloropyridin-3-yl)-1,3′-dimethyl-3′,4′-dihydro-2′H-spiro[imidazole-4,1′-naphthalen]-5(1H)-one]
6.65	CC1CCc2ccc(-c3cccc(Cl)c3)cc2C12N=C(N)N(C)C2=O (centres unmarked) [Example 21, 2-amino-7′-(3-chlorophenyl)-1,2′-dimethyl-3′,4′-dihydro-2′H-spiro[imidazole-4,1′-naphthalen]-5(1H)-one]
6.51	CN1C(=O)[C@@]2(N=C1N)c1cc(-c3cccc(Cl)c3)ccc1CC[C@@H]2CC1CCN(CC(F)F)CC1 [Example 62, (1′S,2′R)-2-amino-7′-(3-chlorophenyl)-2′-((1-(2,2-difluoroethyl)piperidin-4-yl)methyl)-1-methyl-3′,4′-dihydro-2′H-spiro[imidazole-4,1′-naphthalen]-5(1H)-one]
7.03	CN1C(=O)C2(N=C1N)c1cc(-c3cccc(C#N)c3)ccc1CCC2(C)C (centres unmarked) [Example 28, 3-(2-amino-1,2′,2′-trimethyl-5-oxo-1,3′,4′,5-tetrahydro-2′H-spiro[imidazole-4,1′-naphthalene]-7′-yl)benzonitrile]
8.48	CN1C(=O)[C@]2(C[C@@](C)(CO)Cc3ccc(-c4cc(F)cc(Cl)c4)cc32)N=C1N [Example 144, (1′R,3′S)-2-amino-7′-(3-chloro-5-fluorophenyl)-3′-(hydroxymethyl)-1,3′-dimethyl-3′,4′-dihydro-2′H-spiro[imidazole-4,1′-naphthalen]-5(1H)-one]
7.43	CN1C(=O)C2(CC(C)(C)Cc3ccc(C#CCCCC#N)cc32)N=C1N (centres unmarked) [Example 18, 6-(2-amino-1,3′,3′-trimethyl-5-oxo-1,3′,4′,5-tetrahydro-2′H-spiro[imidazole-4,1′-naphthalene]-7′-yl)hex-5-ynenitrile]
7.06	CN1C(=O)C2(N=C1N)c1cc(-c3cncnc3)ccc1CC(C)(C)C2(F)F (centres unmarked) [Example 160, 2-amino-2′,2′-difluoro-1,3′,3′-trimethyl-7′-(pyrimidin-5-yl)-3′,4′-dihydro-2′H-spiro[imidazole-4,1′-naphthalen]-5(1H)-one]
6.72	CN1C(=O)C2(CCCc3ccc(-c4cccc(Cl)c4)cc32)N=C1N (centres unmarked) [Example 24, 2-amino-7′-(3-chlorophenyl)-1-methyl-3′,4′-dihydro-2′H-spiro[imidazole-4,1′-naphthalen]-5(1H)-one]
